Results reported in patent US20100137300A1, “Indolizine Acetic Acid Derivatives as CRTH2 Antagonists” (priority 2007, published 2010).

Biological target: T1, CRTH2 receptor (Homo sapiens, UniProt Q9Y5Y4)
T1 construct: expressed in transfected cells; host or cells: Human embryonic kidney (HEK) cells, membranes
T1 sequence (Q9Y5Y4 1-395): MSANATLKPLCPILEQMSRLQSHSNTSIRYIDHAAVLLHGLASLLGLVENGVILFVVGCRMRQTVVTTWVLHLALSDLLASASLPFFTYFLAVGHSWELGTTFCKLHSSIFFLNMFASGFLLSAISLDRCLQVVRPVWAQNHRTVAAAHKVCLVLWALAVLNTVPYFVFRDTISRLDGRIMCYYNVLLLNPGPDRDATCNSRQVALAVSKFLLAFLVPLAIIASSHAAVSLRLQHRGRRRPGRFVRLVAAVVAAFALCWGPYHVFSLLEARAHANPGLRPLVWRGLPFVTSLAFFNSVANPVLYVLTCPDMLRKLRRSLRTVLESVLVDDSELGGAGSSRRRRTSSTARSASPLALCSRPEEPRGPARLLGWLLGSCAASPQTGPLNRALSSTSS
Experiment: CRTH2 radioligand binding assay ([3H]-PGD2 displacement)
Conditions: HEK cell membranes expressing the CRTH2 receptor, 1 nM [3H]-PGD2
Procedure: The receptor binding assay is performed in a final volume of 200 μL binding buffer [10 mM BES (pH 7.4), 1 mM EDTA, 10 mM manganese chloride, 0.01% BSA] and 1 nM [^3H]-PGD2 (Amersham Biosciences UK Ltd). Ligands are added in assay buffer containing a constant amount of DMSO (1% by volume). Total binding is determined using 1% by volume of DMSO in assay buffer and non-specific binding is determined using 10 μM of unlabeled PGD2 (Sigma). Human embryonic kidney (HEK) cell membranes (3.5 μg) expressing the CRTH2 receptor are incubated with 1.5 mg wheatgerm agglutinin SPA beads and 1 nM [^3H]-PGD2 (Amersham Biosciences UK Ltd) and the mixture incubated for 3 hours at room temperature. Bound [^3H]-PGD2 is detected using a Microbeta TRILUX liquid scintillation counter (Perkin Elmer). Compound IC50 value is determined using a 6-point dose response curve in duplicate with a semi-log compound dilution series. IC50 calculations are performed using Excel and XLfit (Microsoft), and this value is used to determine a Ki value for the test compound using the Cheng-Prusoff equation.

| Structure (SMILES) | IC50 [nM] |
| --- | --- |
| Cc1c(Cc2ccc(S(=O)(=O)N3CCOCC3)cc2)c2cc(C#N)ccn2c1CC(=O)O [Example 1, {7-cyano-2-methyl-1-[4-(morpholine-4-sulfonyl)benzyl]indolizin-3-yl}acetic acid] | 58 |
| Cc1c(Cc2ccc3cc(F)ccc3n2)c2cc(C#N)ccn2c1CC(=O)O [Example 6, [7-cyano-1-(6-fluoroquinolin-2-ylmethyl)-2-methylindolizin-3-yl]acetic acid] | 19 |
